Laboratory results published in patent US12178907B2, “Binary lipid bilayer-containing vesicles comprising embedded cytotoxic agents and methods of making and using the same” (The USA, as represented by the Secretary, Department of …, priority 2018, dated 2024).

Tests used:
[1] = cited from earlier work
[2] = Low-speed centrifugation to sediment unincorporated HPPH; assay type: physicochemical; conditions: 6,000 rpm, 20-30 minutes, HBS
Description: HPPH-loaded vesicles were placed in microcentrifuge tubes and centrifugations were carried out at 6,000 rpm (˜3000 RCF) for 30 minutes at 20-25° C. using a fixed-angle rotor centrifuge. Supernatants containing the vesicle-incorporated HPPH were collected, and any unincorporated HPPH, which aggregates in aqueous environment, was sedimented in the pellet fraction. A sample of an equivalent amount of free HPPH was suspended in HBS (without the lipids), and mixed by vortexing. The free HPPH aggregated in the buffer, which could be sedimented in the pelleted fraction upon centrifugation at low-speed as described above. This protocol presented a simple procedure to remove unincorporated HPPH from the vesicle-associated HPPH.
Free, unincorporated HPPH aggregates in aqueous buffer due to its insolubility, and can be pelleted upon sedimentation by low-speed centrifugation. Size exclusion chromatography (PD10 columns, GE Scientific) was used to separate unincorporated HPPH from the vesicles; however, in these embodiments, it was observed that sonication of HPPH dispersion in the HBS (in the absence of lipids) generated smaller HPPH aggregates that coeluted (in part) with vesicle-associated HPPH on the PD10 column. […] The HPPH suspended in HBS (in the absence of lipids) remained in suspension prior to centrifugation as determined by absorbance measurements. […]

[3] = 661 nm laser treatment (HPPH photodamage); assay type: physicochemical; conditions: five minutes
Description: 661 nm Laser Treatment of Vesicle20-HPPH: Vesicle20-HPPH (containing 50-100 μg lipid & 2.5-5 μg HPPH) were placed in a microcentrifuge tube and irradiated horizontally in a box fitted with a diode laser cube at room temperature. Irradiation was done for five minutes using the 661 nm laser (Coherent Cube Part Number 1130061) at a power output of 90 mW (125 mW/cm^2, as measured by the Thorlabs PM200 Energy Meter with the S121C Photodiode Power Sensor). Free HPPH dispersed in Tween 80 (Tween 80-HPPH) (4) and DPPC:DC8,9PC:DSPEG2000 vesicles (Table 1B) were used as controls to compare the extents of photodamage.
The efficiency of photoactivation by HPPH upon laser exposure depends on its environment and aggregation state. Laser treatment of HPPH results in photodamage and serves as an indication of its activity. Therefore, the photodamage of vesicle-formulated HPPH was compared with Tween 80-HPPH and a formulation comprising DPPC and a lower concentration of DSPE-PEG2000 (see Table 2). The extent of photodamage was tested using Vesicle10-HPPH containing 1:0.05 Lipid:HPPH ratios (Table 2) upon treatment with 661 nm laser for five minutes.

Structure (SMILES): CCCCCCOC(C)c1c(C)c2cc3nc(c4c5[nH]c(cc6nc(cc1[nH]2)C(C)=C6CC)c(C)c5C(=O)C4)[C@@H](CCC(=O)O)[C@@H]3C (stereo partly shown) [HPPH, 2-[1-hexyloxyethyl]-2-devinyl pyropheophorbide-a]
- molar extinction ε ([1]; at 665 nm): 47,500 M^−1 cm^−1
- log P ([1]; physiological pH): 5.6
- HPPH sedimented into the pelleted fraction [2]: nearly complete sedimentation
- extent of photodamage (HPPH fluorescence remaining after laser) [3]: did not result in a decrease in fluorescence
